Holding throughout (assay type): in vivo
Assay [1] has as its system common house mosquitos (Culex pipiens pallens). Description: Test method 4: mosquito larvae released into dilution. The note with it: 24 h, last instar larvae in dilution, after 1 day, 25° C., read-out: mortality of insects. The method, then:
(§1) Next, an efficacy of the Type 1 crystal of Compound (1) on controlling harmful arthropods is shown by Test examples. The following tests were conducted at 25° C.
Test compound is made to a formulation according to a similar method to that described in the Formulation example 1, and thereto is added water to prepare a dilution containing a prescribed concentration of the test compound.
Into the dilution, 30 common house mosquitos (Culex pipiens pallens) at the last instar larval stage are released, and after 1 day, the state of the common house mosquito larvae is examined, and the mortality of insects is calculated by the following equation.
Mortality (%)=(Number of dead insects/Number of tested insects)×100

Assay [2] deals with diamondback moths (Plutella xylostella). Description: Test method 3: sprayed cabbage leaf, diamondback moth larvae. The note with it: 120 h, spray 20 mL/seedling on cabbage, second instar larvae, after 5 days, 25° C., read-out: mortality of insects. On the procedure: as §1
(§2) Test compound is made to a formulation according to a similar method to that described in the Formulation example 1, and thereto is added water containing 0.03 v/v % of Shindain (registered trademark) to prepare a dilution containing a prescribed concentration of the test compound.
Cabbage (Brassicae oleracea) seedling (on the developmental stage of the second to third true leaf) is planted in a cup, and the dilutions are sprayed onto the seedling at a ratio of 20 mL/seedling. Thereafter, the stem and leaf thereof are cut out and then are placed into a cup that is lined with a filter paper. Five (5) diamondback moths (Plutella xylostella) at the second instar larval stage are released into the cup. After 5 days, the number of the surviving insects is counted, and the mortality of insects is calculated by the following equation.

Assay [3] concerns German cockroach (Blattella germanica). Description: Test method 8: treated filter paper with sugar water, German cockroach male adults. The conditions noted are these: 0.8 ppm, 0.7 ml on filter paper, after 5 days, 25° C. The method, then: as §1
(§3) Test compound is made to a formulation according to a similar method to that described in the Formulation example 1, and thereto is added 1.8 g of sucrose, followed by adding 3% sugar water to prepare a dilution containing a prescribed concentration of the test compound.
A filter paper having a diameter of 5.5 cm is spread on the bottom of the cup, and then 0.7 ml of the dilutions are added dropwise to the filter paper, and five (5) German cockroach (Blattella germanica) male adults are released into the cup, and the cup is covered with the lid. After 5 days, the number of the dead and distressed individuals of German cockroach male adults are counted, and the ratio of distressed and dead insects (%) is calculated by the following equation.
(§4) Here the dead individual is one whose behavior has completely stopped, and a distressed individual is one that cannot stand up when placed on its back and also cannot walk.

Assay [4] deals with cotton aphids (Aphis gossypii). Description: Test method 6: sprayed cucumber seedling with artificial rainfall, cotton aphids. The conditions noted are these: 1 ppm, spray 10 mL/seedling on cucumber, artificial rainfall 10 mm/hr for 1 hour, female adults released after one day, after 5 days, 25° C. The method, then:
Next, an efficacy of the Type 1 crystal of Compound (1) on controlling harmful arthropods is shown by Test examples. The following tests were conducted at 25° C. Test compound is made to a formulation according to a similar method to that described in the Formulation example 1, and thereto is added water containing 0.02 v/v % of Shindain (registered trademark) to prepare a dilution containing a prescribed concentration of the test compound. Only the second true leaves of Cucumber (Cucumis sativus) seedling (on the developmental stage of the third true leaf) are retained, and the other leaves are cut off, and the dilutions are sprayed onto the seedling at a ratio of 10 mL/seedling. After the dilution, which is treated, is dried, rain is given to the cucumber seedling with an artificial rainfall device at 10 mm/hr for 1 hour. After one day, 10 cotton aphids (Aphis gossypii) female adults are released onto the seedling. After 5 days, the number of the surviving insects is examined and the controlling value is calculated by the following equation. […]

Assay [5] relates to brown planthoppers (Nilaparvata lugens). Description: Test method 5: sprayed rice seedling, brown planthopper larvae. The conditions noted are these: 144 h, spray 10 mL/seedling on rice, third instar larvae, after 6 days, 25° C., read-out: mortality of insects. The method, then: as §1, §2
Rice (Oryza sativa) seedling (on the developmental stage of the second leaf) is planted in a cup, and the dilutions are sprayed onto the seedling at a ratio of 10 mL/seedling. Thereafter, twenty (20) brown planthoppers (Nilaparvata lugens) at the third instar larval stage are released into the cup. After 6 days, the number of the surviving insects is counted, and the mortality of insects is calculated by the following equation.
Mortality (%)=(1−Number of surviving insects/20)×100

Assay [6] relates to cotton aphids (Aphis gossypii). Description: Test method 1: foliar spray on cucumber seedling infested with cotton aphids. The conditions noted are these: 500 ppm, spray 10 mL/seedling on cucumber, cotton aphids all stages, after 5 days, 25° C. The method, then:
Next, an efficacy of the Type 1 crystal of Compound (1) on controlling harmful arthropods is shown by Test examples. The following tests were conducted at 25° C. Test compound is made to a formulation according to a similar method to that described in the Formulation example 1, and thereto is added water containing 0.03 v/v % of Shindain (registered trademark) to prepare a dilution containing a prescribed concentration of the test compound. Cucumber (Cucumis sativus) seedling (on the developmental stage of the second true leaf) is planted in a cup, and approximately 30 cotton aphids (Aphis gossypii) (all stages of life) are released onto the seedling. After one day, the dilutions are sprayed onto the seedling at a ratio of 10 mL/seedling. After 5 days, the number of the surviving insects is examined, and the controlling value is calculated by the following equation. […]

Assay [7] deals with Argentine ant (Linepithema humile). Description: Test method 7: treated filter paper with sugar water, Argentine ant workers. The conditions noted are these: 12.5 ppm, 0.7 ml on filter paper, after 6 days, 25° C. On the procedure:
as §1, §3
A filter paper having a diameter of 5.5 cm is spread on the bottom of the cup, and then 0.7 ml of the dilutons are added dropwise to the filter paper, and ten (10) Argentine ant (Linepithema humile) workers are released into the cup, and the cup is covered with the lid. After 6 days, the number of the dead and distressed individuals of Argentine ant workers are counted, and the ratio of distressed and dead insects (%) is calculated by the following equation.
as §4

The test system of assay [8] is common cutworms (Spodoptera litura). Description: Test method 2: sprayed cabbage leaf, common cutworm larvae. The conditions noted are these: 120 h, spray 20 mL/seedling on cabbage, second instar larvae, after 5 days, 25° C., read-out: mortality of insects. The method, then:
as §1, §2
Cabbage (Brassicae oleracea) seedling (on the developmental stage of the second to third true leaf) is planted in a cup, and the dilutions are sprayed onto the seedling at a ratio of 20 mL/seedling. Thereafter, the stem and leaf thereof are cut out and then are placed into a cup that is lined with filter paper. Five (5) commom cutworms (Spodoptera litura) at the second instar larval stage are released into the cup. After 5 days, the number of the surviving insects is counted, and the mortality of insects is calculated by the following equation.
Mortality (%)=(1−Number of surviving insects/5)×100

We go through two compounds from patent US20260144258A1, “CRYSTAL OF 2-(5-CYCLOPROPYL-3-(ETHYLSULFONYL)PYRIDIN-2-YL)-5-((TRIFLUOROMETHYL)SULFONYL)BENZO[D]OXAZOLE” (SUMITOMO CHEMICAL COMPANY, LIMITED, priority 2022, published 2026).

SMILES strings stand for the structures.

`CCS(=O)(=O)c1cc(C2CC2)cnc1-c1nc2cc(S(=O)(=O)C(F)(F)F)ccc2o1` [Type 1 crystal of Compound (1), 2-(5-cyclopropyl-3-(ethylsulfonyl)pyridin-2-yl)-5-((trifluoromethyl)sulfonyl)benzo[d]oxazole]: the mortality at 3.5 ppm in assay [1] was at least 90%. Also, the mortality at 500 ppm in assay [2] is at least 80%; in assay [5], at least 90%; in assay [8] it was at least 80%. The “ratio of distressed and dead insects” value in assay [3] and in assay [7] was 100% in each case. The controlling value was 40.5% in assay [4] and at least 90% in assay [6].

In the case of `CCS(=O)(=O)c1cc(C2CC2)cnc1-c1nc2cc(S(=O)(=O)C(F)(F)F)ccc2o1` [amorphous of Compound (1), 2-(5-cyclopropyl-3-(ethylsulfonyl)pyridin-2-yl)-5-((trifluoromethyl)sulfonyl)benzo[d]oxazole], the figures for the “ratio of distressed and dead insects” value in assay [3] and in assay [7] were 30% and 35%, respectively.

One may read the mortality as the percentage killed.
